Source: paper PMC9698730 (Molecules, 2022)
“Also recorded” adds a separate entry of the source.

Key:
Type in all cases: binding, SARS-CoV-2
R88A = system: R88A
R149A = system: R149A
H145A = system: H145A
NTD mutants = system: NTD mutants

Molecule | Mutations SPR (% Inhibition/NTD wt) (R88A) | Mutations SPR (% Inhibition/NTD wt) (R149A) | Mutations SPR (% Inhibition/NTD wt) (H145A) | effect of NTD mutations on SPR signal, in words (NTD mutants)
COc1ccc2cc([C@H](C)C(=O)O)ccc2c1 [Naproxen, naproxen] | R88 (55%), R149 (44%) | R88 (55%), R149 (44%) | – | –
Dihydrofolate [DHF] | – | H145 (96%), R149 (83%) | H145 (96%), R149 (83%) | Mutations H145A and R149A strongly reduced the signal; also recorded: strong effects of the mutations R92A, Y111A and R88A
RPKPQQF-OH [Substance P (1-7), Substance P (1-7) RPKPQQF-OH] | – | – | – | relatively small effects of the mutations with notable exceptions of W52A and Y111A
